Results on eleven compounds are retold here after PubChem BioAssay (NCI).

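Compound exposure: 48 hours, 5 concentrations, 96-well plates. GI50 is the concentration that inhibits growth by half. Definition used: TGI = concentration required for complete inhibition of growth.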

Test systems include A549 NSCLC; EKVX NSCLC; A498 renal; DU-145 prostate; OVCAR-5 ovarian; K-562 leukemia; PC-3 prostate; HS 578T breast; HOP-92 NSCLC; MCF7 breast.
Holding throughout (test): DTP human tumour cell line panel, 48 h

For the compound `CN(C)C1CCN(Cc2ccc(NC(=O)c3cncc(C#Cc4cnc(N)c5ncccc45)c3)cc2C(F)(F)F)CC1`, the GI50 (as a rule, the concentration at which growth is held to half of that of the control) was 8.25 µM in the test on A549 NSCLC; 8.46 µM in the test on EKVX NSCLC; 5.65 µM in the test with A498 renal; 0.904 µM with DU-145 prostate; 8.21 µM in the test with OVCAR-5 ovarian; 0.0158 µM with K-562 leukemia. Besides, the GI50 was 7.42 µM in the test with PC-3 prostate, 3.84 µM in the test on HS 578T breast and 2.77 µM in the test on HOP-92 NSCLC. The TGI (in general, the concentration at which net growth stops) is 19.2 µM in the test on A549 NSCLC; 18.7 µM in the test with EKVX NSCLC; 14.1 µM in the test with A498 renal; 1.72 µM in the test with DU-145 prostate; 15.6 µM in the test with OVCAR-5 ovarian; 1.02 µM in the test with K-562 leukemia. Besides, the TGI is 15.5 µM with PC-3 prostate, 14.8 µM with HS 578T breast and 11.3 µM with HOP-92 NSCLC.

Consider `COc1ccc(-c2coc3cc(O)ccc3c2=O)cc1`, for which the TGI with A549 NSCLC, in the test with A498 renal, with DU-145 prostate, in the test with OVCAR-5 ovarian, with K-562 leukemia and in the test with PC-3 prostate was more than 100 µM in each case. In addition, the concentration for total growth inhibition (TGI) in the test with HS 578T breast and with MCF7 breast was more than 100 µM in each case.

Take `O=C1/C(=C/c2ccc([N+](=O)[O-])s2)Oc2cc(Cl)ccc21`: the GI50 with A549 NSCLC is 2.67 µM; in the test on A498 renal, 29.8 µM; with DU-145 prostate, 3.81 µM; in the test with K-562 leukemia it was 0.296 µM; in the test on PC-3 prostate, 0.387 µM; with HS 578T breast, 0.519 µM. For the same compound, the GI50 in the test with HOP-92 NSCLC is 0.631 µM; in the test with MCF7 breast, 0.944 µM. Also, the TGI was more than 100 µM in the test with A549 NSCLC; more than 85.2 µM with A498 renal; more than 100 µM with DU-145 prostate; 1.46 µM in the test with K-562 leukemia; 1.75 µM in the test on PC-3 prostate; 5.43 µM in the test with HS 578T breast. Also, the figures for the total growth inhibition concentration (TGI) in the test with HOP-92 NSCLC and in the test on MCF7 breast were 2.53 µM and more than 100 µM, respectively.

`CCc1ccccc1NC(=O)C(C#N)C1=C(Cl)C(=O)c2ccccc2C1=O` (configuration not stated): the TGI in the test on A549 NSCLC was 54.7 µM; in the test with EKVX NSCLC it was 33.7 µM; in the test with DU-145 prostate, 32.2 µM; in the test with OVCAR-5 ovarian it was 35.2 µM; in the test with K-562 leukemia, more than 100 µM; in the test on PC-3 prostate it was 33 µM. For the same compound, the TGI in the test with HS 578T breast is 60.6 µM; in the test on HOP-92 NSCLC it was more than 100 µM; in the test on MCF7 breast, 57 µM.

Consider `O=C(O)CCCCn1ccc(=O)[nH]c1=O`, for which the TGI with A549 NSCLC, in the test with EKVX NSCLC, in the test with A498 renal, with DU-145 prostate, in the test on OVCAR-5 ovarian and in the test with K-562 leukemia was more than 100 µM each time. The TGI with PC-3 prostate, with HS 578T breast and in the test with MCF7 breast was more than 100 µM throughout.

In the case of `O=C([O][Hg][c]1ccccc1)c1ccccc1`, the GI50 was 12.7 µM in the test with A549 NSCLC; 1.85 µM in the test on A498 renal; 1.95 µM with DU-145 prostate; 2.48 µM in the test on OVCAR-5 ovarian; 1.11 µM in the test on K-562 leukemia; 3.29 µM in the test on PC-3 prostate. The GI50 is 1.1 µM in the test with HS 578T breast and 1.35 µM in the test with HOP-92 NSCLC. In addition, the TGI in the test with A549 NSCLC worked out at 40 µM; with A498 renal, 7.33 µM; with DU-145 prostate, 4.13 µM; with OVCAR-5 ovarian it was 5.56 µM; with K-562 leukemia, 4.74 µM; in the test with PC-3 prostate it was 14.7 µM. Further, the TGI was found to be 5.87 µM in the test on HS 578T breast and 2.72 µM in the test with HOP-92 NSCLC.

Regarding `Cc1ccccc1C1=C(c2cn(C)c3ccccc23)C(=O)NC1=O`, the GI50 in the test with A549 NSCLC is 12.2 µM; in the test with A498 renal, 6.52 µM; with DU-145 prostate it was 23.7 µM; in the test with OVCAR-5 ovarian, more than 23.6 µM; in the test on K-562 leukemia, 13.6 µM; with PC-3 prostate, 9.74 µM. In addition, the GI50 was 10 µM in the test on HS 578T breast, more than 25 µM with HOP-92 NSCLC and 9.2 µM in the test with MCF7 breast. Also, the TGI with A549 NSCLC was more than 25 µM; with A498 renal it was 20.7 µM; with DU-145 prostate, more than 25 µM; in the test with OVCAR-5 ovarian it was more than 25 µM; in the test with K-562 leukemia it was more than 25 µM; with PC-3 prostate, more than 25 µM. Further, the TGI in the test on HS 578T breast, with HOP-92 NSCLC and with MCF7 breast was more than 25 µM each time.

`CC(=O)OCC12CN(C#N)C3C4COC(CC41)C1(C(=O)N(C)c4ccccc41)C32` (configuration not stated): the TGI in the test on A549 NSCLC is more than 100 µM; in the test with EKVX NSCLC, 88.9 µM; in the test on DU-145 prostate, 37.7 µM; in the test on OVCAR-5 ovarian it was more than 100 µM; with K-562 leukemia, more than 100 µM; in the test with PC-3 prostate it was more than 100 µM. The results for the total growth inhibition concentration (TGI) in the test with HS 578T breast, with HOP-92 NSCLC and with MCF7 breast were 55.9 µM, 52.4 µM and 41.4 µM, respectively.

On to `COC(=O)Oc1nn(C(=O)OC)c(=O)c2ccccc12`, for which the TGI in the test on A549 NSCLC, in the test on EKVX NSCLC, in the test with DU-145 prostate, in the test on OVCAR-5 ovarian, in the test on K-562 leukemia and in the test on PC-3 prostate was more than 100 µM in each case. The total growth inhibition concentration (TGI) with HS 578T breast and with MCF7 breast was more than 100 µM in each case.

With `CNC(=O)c1nn(C)c2c1C(C)(C)Cc1cnc(Nc3cccc(N4CCN(C)CC4)c3)nc1-2`, the GI50 in the test on A549 NSCLC is 0.34 µM; in the test on A498 renal, 0.0254 µM; with DU-145 prostate, 0.686 µM; with OVCAR-5 ovarian, 0.372 µM; in the test with K-562 leukemia, 0.443 µM; in the test with PC-3 prostate, 0.189 µM. Further, the results for the GI50 in the test with HS 578T breast, with HOP-92 NSCLC and with MCF7 breast were 0.204 µM, 0.164 µM and 0.304 µM, respectively. The TGI is 13.8 µM with A549 NSCLC; 0.389 µM with A498 renal; 14 µM in the test on DU-145 prostate; more than 100 µM in the test with OVCAR-5 ovarian; more than 50 µM in the test with K-562 leukemia; 7.24 µM in the test on PC-3 prostate. The figures for the TGI in the test with HS 578T breast, in the test on HOP-92 NSCLC and in the test on MCF7 breast were 2.46 µM, 1.8 µM and 15.5 µM, respectively.

Consider `COc1ccc(-c2cc(/C=C3\C(=O)Nc4cc(Cl)ccc43)[nH]n2)cc1`, for which the GI50 in the test with A549 NSCLC was 5.49 µM; with A498 renal, 2.38 µM; in the test with DU-145 prostate, 3.52 µM; in the test with OVCAR-5 ovarian it was 5.89 µM; in the test with K-562 leukemia, 1.56 µM; in the test on PC-3 prostate it was 2.75 µM. Moreover, the GI50 in the test on HS 578T breast is 2.9 µM; in the test with HOP-92 NSCLC, 2.33 µM; in the test on MCF7 breast, 2.19 µM. Further, the TGI in the test with A549 NSCLC was more than 100 µM; with A498 renal it was 7.04 µM; with DU-145 prostate it was 21.4 µM; with OVCAR-5 ovarian, more than 100 µM; in the test on K-562 leukemia, 32.3 µM; with PC-3 prostate it was more than 100 µM. The TGI was determined as 35 µM in the test on HS 578T breast, 56.9 µM in the test on HOP-92 NSCLC and 37.3 µM in the test with MCF7 breast.
